According to paper PMC11345841, “Exploring 2-Sulfonylpyrimidine Warheads as Acrylamide Surrogates for Targeted Covalent Inhibition: A BTK Story” (Journal of Medicinal Chemistry, 2024):
Where two headings read alike, the source gives them in different places.

How the values were obtained:
[1] = biological target: T1, ABL1(F317I)-nonphosphorylated (Homo sapiens, UniProt P00519, F317I); assay: KINOMEscan ScanTK; format: binding
T1 construct: purchased Eurofins DiscoverX KINOMEscan (scanTK)

ALK = biological target: T2, ALK (Homo sapiens, UniProt Q9UM73); assay: KINOMEscan ScanTK; format: binding
T2 construct: purchased Eurofins DiscoverX KINOMEscan (scanTK)

CSK = biological target: T3, CSK (Homo sapiens, UniProt P41240); assay: KINOMEscan ScanTK; format: binding
T3 construct: purchased Eurofins DiscoverX KINOMEscan (scanTK)

EPHA1 = biological target: T4, EPHA1 (Homo sapiens, UniProt P21709); assay: KINOMEscan ScanTK; format: binding
T4 construct: purchased Eurofins DiscoverX KINOMEscan (scanTK)
T4 sequence (P21709 26-976): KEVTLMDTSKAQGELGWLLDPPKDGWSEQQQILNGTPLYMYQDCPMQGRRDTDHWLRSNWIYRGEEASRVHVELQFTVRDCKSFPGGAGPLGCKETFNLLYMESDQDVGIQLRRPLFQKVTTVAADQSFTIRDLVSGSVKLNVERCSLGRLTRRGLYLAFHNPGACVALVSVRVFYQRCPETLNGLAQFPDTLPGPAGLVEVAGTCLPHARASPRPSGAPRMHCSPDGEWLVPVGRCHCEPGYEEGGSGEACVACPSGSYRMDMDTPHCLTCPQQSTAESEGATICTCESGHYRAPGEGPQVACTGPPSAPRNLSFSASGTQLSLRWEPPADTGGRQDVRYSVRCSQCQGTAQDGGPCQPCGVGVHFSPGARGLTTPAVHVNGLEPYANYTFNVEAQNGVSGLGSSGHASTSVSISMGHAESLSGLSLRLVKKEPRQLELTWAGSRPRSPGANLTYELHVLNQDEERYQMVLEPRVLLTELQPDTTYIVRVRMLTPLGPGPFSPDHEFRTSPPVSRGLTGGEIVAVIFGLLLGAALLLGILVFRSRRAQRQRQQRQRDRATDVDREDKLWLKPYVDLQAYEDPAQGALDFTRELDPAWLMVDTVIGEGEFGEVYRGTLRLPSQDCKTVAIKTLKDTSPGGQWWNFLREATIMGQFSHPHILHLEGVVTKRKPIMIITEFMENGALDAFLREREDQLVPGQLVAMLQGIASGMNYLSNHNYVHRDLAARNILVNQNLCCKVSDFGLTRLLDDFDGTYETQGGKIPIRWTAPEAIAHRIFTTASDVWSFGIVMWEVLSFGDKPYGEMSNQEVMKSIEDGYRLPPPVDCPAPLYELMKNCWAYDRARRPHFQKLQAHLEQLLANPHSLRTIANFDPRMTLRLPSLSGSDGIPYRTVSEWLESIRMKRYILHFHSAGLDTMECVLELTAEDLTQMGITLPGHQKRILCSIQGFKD

FYN = biological target: T5, FYN (Homo sapiens, UniProt P06241); assay: KINOMEscan ScanTK; format: binding
T5 construct: purchased Eurofins DiscoverX KINOMEscan (scanTK)

KIT(V559D,T670I) = biological target: T6, KIT(V559D,T670I) (Homo sapiens, UniProt P10721, T670I/V559D); assay: KINOMEscan ScanTK; format: binding
T6 construct: purchased Eurofins DiscoverX KINOMEscan (scanTK)

BTK, full length (2–659) = BTK, full length (2–659) (Homo sapiens, UniProt Q06187); assay: PhosphoSens enzymatic IC50 (AssayQuant); format: biochemical; settings: for IC50: 1 nM BTK, 1.0 mM ATP; for fold change, 1 nM BTK: IC50 0 min vs 60 min preincubation
Source text: (§1) Biochemical enzymatic IC50 data were generated by AssayQuant Technologies (Marlborough, MA) using the PhosphoSens Platform. […] Reaction rate versus log [inhibitor concentration] data were fitted to the four-parameter logistic equation [drawing 1]

[2] = biological target: T7, EGFR, cytoplasmic domain (669–1210) (Homo sapiens, UniProt P00533); assay: PhosphoSens enzymatic IC50 (AssayQuant); format: biochemical; settings: no preincubation
T7 construct: GST (N); purchased Carna Biosciences
Source text: as §1

[3] = biological target: T8, ABL1(F317L)-phosphorylated (Homo sapiens, UniProt P00519, F317L); assay: KINOMEscan ScanTK; format: binding
T8 construct: purchased Eurofins DiscoverX KINOMEscan (scanTK)

ABL1-nonphosphorylated = biological target: T9, ABL1-nonphosphorylated (Homo sapiens, UniProt P00519); assay: KINOMEscan ScanTK; format: binding
T9 construct: purchased Eurofins DiscoverX KINOMEscan (scanTK)

FLT3(N841I) = biological target: T10, FLT3(N841I) (Homo sapiens, UniProt P36888, N841I); assay: KINOMEscan ScanTK; format: binding
T10 construct: purchased Eurofins DiscoverX KINOMEscan (scanTK)
T10 sequence (P36888 27-993 N841I): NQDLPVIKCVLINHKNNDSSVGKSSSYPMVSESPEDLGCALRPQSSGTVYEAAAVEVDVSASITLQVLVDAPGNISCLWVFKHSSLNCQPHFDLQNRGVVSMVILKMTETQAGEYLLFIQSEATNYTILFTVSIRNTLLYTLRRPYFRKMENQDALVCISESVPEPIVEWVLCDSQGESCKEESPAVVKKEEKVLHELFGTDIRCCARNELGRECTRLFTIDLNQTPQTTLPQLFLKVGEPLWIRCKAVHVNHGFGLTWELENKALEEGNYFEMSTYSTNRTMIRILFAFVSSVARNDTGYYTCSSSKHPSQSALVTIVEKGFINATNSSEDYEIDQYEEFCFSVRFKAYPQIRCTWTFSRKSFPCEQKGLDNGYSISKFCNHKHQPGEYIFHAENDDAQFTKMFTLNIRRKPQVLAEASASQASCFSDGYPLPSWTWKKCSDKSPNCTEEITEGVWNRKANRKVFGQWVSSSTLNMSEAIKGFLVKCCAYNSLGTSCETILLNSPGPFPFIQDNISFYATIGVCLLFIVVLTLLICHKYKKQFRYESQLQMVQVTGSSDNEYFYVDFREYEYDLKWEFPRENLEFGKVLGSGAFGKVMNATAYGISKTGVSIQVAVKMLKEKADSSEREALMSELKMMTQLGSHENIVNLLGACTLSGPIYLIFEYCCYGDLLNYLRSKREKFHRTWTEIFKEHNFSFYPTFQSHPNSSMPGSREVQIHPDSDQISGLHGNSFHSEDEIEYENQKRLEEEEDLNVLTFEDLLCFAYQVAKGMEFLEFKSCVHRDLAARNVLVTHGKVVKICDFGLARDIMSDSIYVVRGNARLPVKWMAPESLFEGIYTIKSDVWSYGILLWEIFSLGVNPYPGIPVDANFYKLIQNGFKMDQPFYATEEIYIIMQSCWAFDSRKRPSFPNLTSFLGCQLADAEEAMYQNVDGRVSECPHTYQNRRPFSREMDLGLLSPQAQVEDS

[4] = 0 min preincubation IC50 (nM), 0 min preincubation
[5] = 60 min preincubation IC50 (nM), 60 min preincubation

T3 sequence (P41240 whole entry): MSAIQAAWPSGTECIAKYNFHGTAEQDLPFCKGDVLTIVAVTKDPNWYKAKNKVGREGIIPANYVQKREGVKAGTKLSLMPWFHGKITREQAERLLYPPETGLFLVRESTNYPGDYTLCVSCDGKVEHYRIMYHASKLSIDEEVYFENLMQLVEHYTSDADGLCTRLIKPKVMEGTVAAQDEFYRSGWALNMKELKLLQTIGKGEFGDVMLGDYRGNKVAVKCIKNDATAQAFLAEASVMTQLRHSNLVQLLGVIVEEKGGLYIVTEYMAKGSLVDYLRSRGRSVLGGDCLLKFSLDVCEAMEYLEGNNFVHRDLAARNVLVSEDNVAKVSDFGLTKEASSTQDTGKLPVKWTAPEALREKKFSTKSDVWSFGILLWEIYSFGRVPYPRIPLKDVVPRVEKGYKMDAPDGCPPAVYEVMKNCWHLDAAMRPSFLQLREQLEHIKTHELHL
T6 sequence (P10721 26-976 V559D/T670I): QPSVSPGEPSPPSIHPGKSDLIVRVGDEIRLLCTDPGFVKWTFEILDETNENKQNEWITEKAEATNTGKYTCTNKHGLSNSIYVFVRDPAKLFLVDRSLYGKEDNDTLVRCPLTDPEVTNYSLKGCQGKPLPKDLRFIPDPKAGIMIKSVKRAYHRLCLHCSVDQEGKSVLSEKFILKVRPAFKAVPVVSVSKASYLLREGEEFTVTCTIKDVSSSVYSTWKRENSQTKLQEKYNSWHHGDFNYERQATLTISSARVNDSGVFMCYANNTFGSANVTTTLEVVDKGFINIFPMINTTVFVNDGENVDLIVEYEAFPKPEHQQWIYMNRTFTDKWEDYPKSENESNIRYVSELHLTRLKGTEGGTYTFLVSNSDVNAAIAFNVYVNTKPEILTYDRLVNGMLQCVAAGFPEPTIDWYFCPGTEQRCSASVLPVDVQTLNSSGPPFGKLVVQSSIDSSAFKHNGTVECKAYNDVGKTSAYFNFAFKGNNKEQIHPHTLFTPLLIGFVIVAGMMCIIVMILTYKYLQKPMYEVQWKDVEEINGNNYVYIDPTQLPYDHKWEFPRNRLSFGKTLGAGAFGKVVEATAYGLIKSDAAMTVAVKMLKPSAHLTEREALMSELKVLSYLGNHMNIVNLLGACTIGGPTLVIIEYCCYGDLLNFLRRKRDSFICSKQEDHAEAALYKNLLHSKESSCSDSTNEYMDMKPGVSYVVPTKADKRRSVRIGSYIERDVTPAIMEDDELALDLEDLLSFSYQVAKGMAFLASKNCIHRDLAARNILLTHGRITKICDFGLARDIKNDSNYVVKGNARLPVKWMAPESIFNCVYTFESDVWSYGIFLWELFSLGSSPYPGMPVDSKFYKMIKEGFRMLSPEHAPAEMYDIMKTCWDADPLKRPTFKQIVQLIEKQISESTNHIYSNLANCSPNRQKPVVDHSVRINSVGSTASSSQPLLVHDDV
T5 sequence (P06241 whole entry): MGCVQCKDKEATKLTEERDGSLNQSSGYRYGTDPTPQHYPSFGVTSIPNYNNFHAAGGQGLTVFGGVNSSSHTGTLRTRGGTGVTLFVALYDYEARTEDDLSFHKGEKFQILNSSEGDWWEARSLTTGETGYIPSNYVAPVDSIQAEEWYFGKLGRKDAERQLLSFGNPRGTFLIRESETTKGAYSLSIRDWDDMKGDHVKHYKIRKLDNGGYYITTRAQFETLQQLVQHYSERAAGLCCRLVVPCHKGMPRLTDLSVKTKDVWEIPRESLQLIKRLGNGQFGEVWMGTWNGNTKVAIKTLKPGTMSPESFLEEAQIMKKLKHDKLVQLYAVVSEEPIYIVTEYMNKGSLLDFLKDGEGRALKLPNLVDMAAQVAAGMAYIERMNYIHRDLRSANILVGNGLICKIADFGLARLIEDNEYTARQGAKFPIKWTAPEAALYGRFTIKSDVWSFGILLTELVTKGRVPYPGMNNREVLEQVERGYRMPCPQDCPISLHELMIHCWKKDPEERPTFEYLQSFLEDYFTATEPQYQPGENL
T7 sequence (P00533 669-1210): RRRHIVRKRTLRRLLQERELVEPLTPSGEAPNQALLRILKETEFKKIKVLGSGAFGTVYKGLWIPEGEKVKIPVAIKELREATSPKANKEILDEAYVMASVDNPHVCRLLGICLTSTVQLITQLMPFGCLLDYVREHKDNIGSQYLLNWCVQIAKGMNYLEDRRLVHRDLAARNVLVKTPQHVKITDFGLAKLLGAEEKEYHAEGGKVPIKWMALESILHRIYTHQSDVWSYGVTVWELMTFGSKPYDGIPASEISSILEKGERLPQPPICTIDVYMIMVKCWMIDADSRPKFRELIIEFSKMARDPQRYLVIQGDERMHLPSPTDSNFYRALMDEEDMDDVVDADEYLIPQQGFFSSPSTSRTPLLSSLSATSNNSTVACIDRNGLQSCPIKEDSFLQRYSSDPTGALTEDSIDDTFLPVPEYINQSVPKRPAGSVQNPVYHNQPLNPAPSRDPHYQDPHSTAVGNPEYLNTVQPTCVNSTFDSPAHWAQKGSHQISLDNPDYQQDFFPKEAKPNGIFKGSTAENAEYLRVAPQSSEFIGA
Sequence of BTK, full length (2–659) (Q06187 2-659): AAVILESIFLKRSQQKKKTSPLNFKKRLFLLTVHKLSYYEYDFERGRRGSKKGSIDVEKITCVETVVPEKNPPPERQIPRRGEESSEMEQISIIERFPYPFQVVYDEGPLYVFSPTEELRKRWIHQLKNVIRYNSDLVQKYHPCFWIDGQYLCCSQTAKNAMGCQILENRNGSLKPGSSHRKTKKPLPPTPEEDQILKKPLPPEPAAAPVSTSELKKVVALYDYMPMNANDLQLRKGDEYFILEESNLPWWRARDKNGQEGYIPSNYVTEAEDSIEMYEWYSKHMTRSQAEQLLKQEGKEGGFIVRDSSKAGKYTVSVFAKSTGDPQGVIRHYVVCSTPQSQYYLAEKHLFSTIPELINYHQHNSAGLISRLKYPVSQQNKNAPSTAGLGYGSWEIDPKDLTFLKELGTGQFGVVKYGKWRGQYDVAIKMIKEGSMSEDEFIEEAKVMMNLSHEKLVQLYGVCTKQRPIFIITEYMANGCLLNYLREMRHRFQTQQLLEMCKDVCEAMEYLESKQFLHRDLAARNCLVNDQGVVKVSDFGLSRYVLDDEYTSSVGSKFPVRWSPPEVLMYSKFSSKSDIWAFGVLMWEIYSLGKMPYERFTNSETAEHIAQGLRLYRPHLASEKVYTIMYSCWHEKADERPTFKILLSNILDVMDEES
T2 sequence (Q9UM73 19-1620): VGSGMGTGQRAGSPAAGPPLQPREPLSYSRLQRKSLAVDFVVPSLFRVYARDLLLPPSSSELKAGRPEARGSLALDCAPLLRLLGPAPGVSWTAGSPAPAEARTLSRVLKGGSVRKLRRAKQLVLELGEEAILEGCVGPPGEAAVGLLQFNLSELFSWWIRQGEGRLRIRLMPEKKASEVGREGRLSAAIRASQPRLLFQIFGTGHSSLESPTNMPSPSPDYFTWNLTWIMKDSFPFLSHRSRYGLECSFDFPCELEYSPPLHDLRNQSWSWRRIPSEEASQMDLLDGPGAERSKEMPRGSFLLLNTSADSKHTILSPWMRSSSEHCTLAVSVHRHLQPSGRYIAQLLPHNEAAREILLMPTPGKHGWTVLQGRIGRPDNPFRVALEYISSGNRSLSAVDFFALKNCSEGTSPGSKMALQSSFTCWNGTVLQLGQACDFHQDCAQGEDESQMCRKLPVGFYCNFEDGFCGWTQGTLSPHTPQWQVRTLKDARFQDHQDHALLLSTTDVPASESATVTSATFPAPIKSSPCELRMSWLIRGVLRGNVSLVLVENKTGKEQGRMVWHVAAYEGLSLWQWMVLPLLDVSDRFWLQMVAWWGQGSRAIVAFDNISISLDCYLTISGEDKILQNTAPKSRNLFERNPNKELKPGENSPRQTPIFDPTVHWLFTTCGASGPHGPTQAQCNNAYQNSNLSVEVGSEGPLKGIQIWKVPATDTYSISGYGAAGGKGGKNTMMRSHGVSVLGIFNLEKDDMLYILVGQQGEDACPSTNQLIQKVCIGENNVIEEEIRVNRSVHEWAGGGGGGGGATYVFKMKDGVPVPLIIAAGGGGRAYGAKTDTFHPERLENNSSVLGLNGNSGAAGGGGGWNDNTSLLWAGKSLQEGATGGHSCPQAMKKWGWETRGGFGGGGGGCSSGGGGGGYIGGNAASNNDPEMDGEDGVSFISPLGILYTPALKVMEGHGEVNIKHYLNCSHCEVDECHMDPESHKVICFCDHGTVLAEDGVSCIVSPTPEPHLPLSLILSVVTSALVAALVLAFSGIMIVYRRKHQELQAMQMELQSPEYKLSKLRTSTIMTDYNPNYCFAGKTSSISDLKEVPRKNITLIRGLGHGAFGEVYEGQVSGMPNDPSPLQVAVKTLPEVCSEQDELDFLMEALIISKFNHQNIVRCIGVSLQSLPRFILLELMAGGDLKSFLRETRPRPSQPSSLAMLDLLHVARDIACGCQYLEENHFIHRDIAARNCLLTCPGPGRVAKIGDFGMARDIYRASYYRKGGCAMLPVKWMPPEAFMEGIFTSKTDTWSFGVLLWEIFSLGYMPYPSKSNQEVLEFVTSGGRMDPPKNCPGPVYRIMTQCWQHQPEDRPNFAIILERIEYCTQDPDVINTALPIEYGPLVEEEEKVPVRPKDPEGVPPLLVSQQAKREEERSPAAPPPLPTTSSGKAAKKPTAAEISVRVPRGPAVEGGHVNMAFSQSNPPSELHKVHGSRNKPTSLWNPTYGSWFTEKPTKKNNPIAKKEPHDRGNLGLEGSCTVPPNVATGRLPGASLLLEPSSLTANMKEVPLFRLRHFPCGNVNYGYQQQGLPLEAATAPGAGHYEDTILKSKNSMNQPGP

Structure (SMILES)	remaining binding at 1 µM ([1]; @1000nM, read-out: %Control) [%]	remaining binding at 1 µM ([1]; read-out: %Control @1000nM) [%]	remaining binding at 1 µM (ALK; @1000nM, read-out: %Control) [%]	remaining binding at 1 µM (ALK; read-out: %Control @1000nM) [%]	remaining binding at 1 µM (CSK; @1000nM, read-out: %Control) [%]	remaining binding at 1 µM (CSK; read-out: %Control @1000nM) [%]	remaining binding at 1 µM (EPHA1; @1000nM, read-out: %Control) [%]	remaining binding at 1 µM (EPHA1; read-out: %Control @1000nM) [%]	remaining binding at 1 µM (FYN; @1000nM, read-out: %Control) [%]	remaining binding at 1 µM (FYN; read-out: %Control @1000nM) [%]	remaining binding at 1 µM (KIT(V559D,T670I); @1000nM, read-out: %Control) [%]	remaining binding at 1 µM (KIT(V559D,T670I); read-out: %Control @1000nM) [%]	difference in %Control versus compound Ib at 1 µM ([1]; @1000nM) [%]	difference in %Control from compound Ib at 1 µM ([3]; @1000nM) [%]	remaining binding at 1 µM ([3]; @1000nM, read-out: %Control) [%]	remaining binding at 1 µM ([3]; read-out: %Control @1000nM) [%]	difference in %Control from reference compound Ib at 1 µM (ABL1-nonphosphorylated; @1000nM) [%]	remaining binding at 1 µM (ABL1-nonphosphorylated; @1000nM, read-out: %Control) [%]	remaining binding at 1 µM (ABL1-nonphosphorylated; read-out: %Control @1000nM) [%]	difference in %Control versus compound Ib at 1 µM (ALK; @1000nM) [%]	other results
C=CC(=O)N1CCC[C@@H](n2nc(-c3ccc(Oc4ccccc4)cc3)c3c(N)ncnc32)C1 [Compound 1g, Ibrutinib, reference compound]	52	52	94	94	4.5	4.5	72	72	9.6	9.6	68	68									
Cc1cnc(S(C)(=O)=O)nc1N1CCCC(n2nc(-c3ccc(Oc4ccccc4)cc3)c3c(N)ncnc32)C1 (stereo not shown) [Compound 8a, 1-(1-(5-Methyl-2-(methylsulfonyl)pyrimidin-4-yl)piperidin-3-yl)-3-(4-phenoxyphenyl)-1H-pyrazolo[3,4-d]pyrimidin-4-amine]	81	81	80	80	6.6	6.6	81	81	17	17	68	68	29	15	52	52	38.5	47	47	-14	IC50 (BTK, full length (2–659); [4]): 6 nM; IC50 (BTK, full length (2–659); [5]): 0.31 nM; fold change, 1 nM BTK (BTK, full length (2–659)): 19.6; 0 min IC50 (nM), 3 nM EGFR [2]: none of the compounds, 8a, 8b, or 8d, exhibited measurable inhibition; IC50 [2]: > 1000 nM; difference in %Control from reference compound Ib at 1 µM (CSK; @1000nM): 2.1%; difference in %Control versus compound Ib at 1 µM (EPHA1; @1000nM): 9%; difference in %Control versus compound Ib at 1 µM (FLT3(N841I); @1000nM): 40%; remaining binding at 1 µM (FLT3(N841I); @1000nM, read-out: %Control): 59%; remaining binding at 1 µM (FLT3(N841I); read-out: %Control @1000nM): 59%; difference in % of control versus compound Ib at 1 µM (FYN; @1000nM): 7.4%; difference in %Control versus compound Ib at 1 µM (KIT(V559D,T670I); @1000nM): 0%
COC(=O)c1cnc(S(C)(=O)=O)nc1N1CCCC(n2nc(-c3ccc(Oc4ccccc4)cc3)c3c(N)ncnc32)C1 (stereo not shown) [Compound 8b, Methyl 4-(3-(4-Amino-3-(4-phenoxyphenyl)-1H-pyrazolo[3,4-d]pyrimidin-1-yl)piperidin-1-yl)-2-(methylsulfonyl)pyrimidine-5-carboxylate]	82	82	100	100	26	26	56	56	26	26	92	92	30	16	53	53	56.5	65	65	6	IC50 (BTK, full length (2–659); [4]): 79 nM; IC50 (BTK, full length (2–659); [5]): 6.3 nM; fold change, 1 nM BTK (BTK, full length (2–659)): 12.5; 0 min IC50 (nM), 3 nM EGFR [2]: none of the compounds, 8a, 8b, or 8d, exhibited measurable inhibition; IC50 [2]: > 1000 nM; difference in %Control from reference compound Ib at 1 µM (CSK; @1000nM): 21.5%; difference in %Control versus compound Ib at 1 µM (EPHA1; @1000nM): -16%; difference in %Control versus compound Ib at 1 µM (FLT3(N841I); @1000nM): 43%; remaining binding at 1 µM (FLT3(N841I); @1000nM, read-out: %Control): 62%; remaining binding at 1 µM (FLT3(N841I); read-out: %Control @1000nM): 62%; difference in % of control versus compound Ib at 1 µM (FYN; @1000nM): 16.4%; difference in %Control versus compound Ib at 1 µM (KIT(V559D,T670I); @1000nM): 24%
CCOC(=O)c1cnc(S(C)(=O)=O)nc1N1CCC[C@@H](n2nc(-c3ccc(Oc4ccccc4)cc3)c3c(N)ncnc32)C1 [Compound 8c, Ethyl (R)-4-(3-(4-Amino-3-(4-phenoxyphenyl)-1H-pyrazolo[3,4-d]pyrimidin-1-yl)piperidin-1-yl)-2-(methylsulfonyl)pyrimidine-5-carboxylate]	98	98	69	69	30	30	92	92	40	40	34	34	46	49	86	86	36.5	45	45	-25	difference in %Control from reference compound Ib at 1 µM (CSK; @1000nM): 25.5%; difference in %Control versus compound Ib at 1 µM (EPHA1; @1000nM): 20%; difference in %Control versus compound Ib at 1 µM (FLT3(N841I); @1000nM): 54%; remaining binding at 1 µM (FLT3(N841I); @1000nM, read-out: %Control): 73%; remaining binding at 1 µM (FLT3(N841I); read-out: %Control @1000nM): 73%; difference in % of control versus compound Ib at 1 µM (FYN; @1000nM): 30.4%; difference in %Control versus compound Ib at 1 µM (KIT(V559D,T670I); @1000nM): -34%
